Entries after “also recorded” stand apart in the source; their conditions may differ.
Experiments:
[1] = test system: DLBCL models harboring mutant CCND3 (PEST-domain mutation); test: Cell viability by Cell Titer Glo (cellular ATP), 72 hours, cells containing mutant CCND3; assay type: cell-based, human; details: 10 μM to 1.5 nM
Protocol: Using the pharmacologic characterization of the COLE cell lines, cell lines containing CCND3 mutations were tested for CDKi sensitivity. DOHH-2, NU-DHL-1, SEM, SU-DHL-4, SU-DHL-6, and SU-DHL-10 cells were purchased from Deutsche Sammlung von Mikroorganismen and Zellkulturen GmbH (DSMZ). DB and Pfeiffer cells were purchased from American Type Culture Collection (ATCC). A4/FUK cells were purchased from Health Science Research Resources Bank (HSRRB). These cells were cultured in RPMI 1640 medium (ATCC) supplemented with either 10% (A4/FUK, DB, DOHH-2, Pfeiffer, and SEM cells) or 20% (NU-DHL-1, SU-DHL-4, SU-DHL-6, and SU-DHL-10) fetal bovine serum (Gibco) and incubated at 37° C./5% CO2. For screening, cells were seeded in 80 μl of medium in 96-well plates (Costar #3904) at 10,000 (DB, DOHH-2, NU-DHL-1, SEM, SU-DHL-4, SU-DHL-6, and SU-DHL-10), 15,000 (A4/FUK) or 20,000 (Pfeiffer) cell densities and incubated overnight prior to compound addition. A4/FUK, DOHH-2, NU-DHL-1, SU-DHL-10, DB, Pfeiffer, SU-DHL-4 and SU-DHL-6 cells are diffuse large B cell lymphoma (DLBCL) cell lines. SEM cells are acute lymphoblastic B cell leukemia cells.
(§1) Compound stock (5×) was freshly prepared in the appropriate culture medium, and manually added to the plates by electronic multichannel pipette. In a minimum of three replicate wells, the number & viability of cells at the time of compound addition, as well as single agent effects after 72 hours, was assessed by quantification of cellular ATP levels via Cell Titer Glo (Promega, Madison, Wis.) according to the manufacturer's protocol. Day 0 subtracted-EC^50s were calculated using standard four-parametric curve fitting (XLFit, model 205).
CDKi(1)-CDKi(3) were synthesized at Novartis Pharma AG, and compound stocks were prepared in DMSO at a final concentration of 10 mM. Working stocks were serially diluted in the appropriate cell culture medium in 3-fold increments to achieve final assay concentrations ranging from 10 μM to 1.5 nM.

[2] = test system: DLBCL models harboring wild-type CCND3; test: Cell viability by Cell Titer Glo (cellular ATP), 72 hours, cells containing wild type CCND3; assay type: cell-based, human; details: 10 μM to 1.5 nM
Protocol: Using the pharmacologic characterization of the COLE cell lines, cell lines containing CCND3 mutations were tested for CDKi sensitivity. DOHH-2, NU-DHL-1, SEM, SU-DHL-4, SU-DHL-6, and SU-DHL-10 cells were purchased from Deutsche Sammlung von Mikroorganismen and Zellkulturen GmbH (DSMZ). DB and Pfeiffer cells were purchased from American Type Culture Collection (ATCC). A4/FUK cells were purchased from Health Science Research Resources Bank (HSRRB). These cells were cultured in RPMI 1640 medium (ATCC) supplemented with either 10% (A4/FUK, DB, DOHH-2, Pfeiffer, and SEM cells) or 20% (NU-DHL-1, SU-DHL-4, SU-DHL-6, and SU-DHL-10) fetal bovine serum (Gibco) and incubated at 37° C./5% CO2. […]
as §1, with “205). […]” for “205).”

| SMILES | sensitivity / cell viability of cells containing mutant CCND3 [1] | sensitivity / cell viability of cells containing wild type CCND3 [2] |
| --- | --- | --- |
| CN(C)C(=O)c1cc2cnc(Nc3ccc(N4CCNCC4)cn3)nc2n1C1CCCC1 [CDKi(1)] | increased sensitivity |  |
| CS(=O)(=O)N1CCC(NC(=O)c2[nH]ncc2NC(=O)c2c(Cl)cccc2Cl)CC1 [CDKi(3)] | more sensitive to the pan-CDK inhibitor than to the specific CDK 4/6 inhibitors; also recorded: insensitivity | more sensitive to the pan-CDK inhibitor than to the specific CDK 4/6 inhibitors; also recorded: insensitivity |
| CC(=O)c1c(C)c2cnc(Nc3ccc(N4CCNCC4)cn3)nc2n(C2CCCC2)c1=O [CDKi(2), PD0332991, reference compound] | more sensitive; also recorded: sensitivity |  |

From patent US20180066322A1, “BIOMARKERS ASSOCIATED WITH CDK INHIBITORS” (NOVARTIS AG, priority 2012, published 2018)
